According to PMC9225722, “Synthesis and biological evaluation of thieno[3,2-c]pyrazol-3-amine derivatives as potent glycogen synthase kinase 3β inhibitors for Alzheimer’s disease” (Journal of Enzyme Inhibition and Medicinal Chemistry, 2022):
Entries after “also recorded” stand apart in the source; their conditions may differ.

Key:
[1] = test system: SH-SY5Y cells; assay: Cytotoxicity on SH-SY5Y cells (MTT assay); format: cell-based, human
Experimental: To evaluate the neuronal cell cytotoxicity of compound 16b, we examined its cytotoxic profile on human neuroblastoma SH-SY5Y cells after incubation for 24 h by the MTT (3-(4,5-dimethylthiazol-2-yl)-2,5-diphenyltetrazolium bromide) assay.
Figure 5. Cell viability of SH-SY5Y cells exposed to compound 16b at different concentrations (range from 3.125 − 50 μM) for 24 h. Vehicle treater cells were used as control. The results were expressed as the percentage of viable cells observed after treatment with compound 16b respect to vehicle-treated cells (100%) and shown as the mean ± SD from at least three separate experiments.
SH-SY5Y cells were cultured in DMEM/F12 (Dulbecco’s modified Eagle medium and Ham’s F-12, 1:1) with 10% FBS (fetal bovine serum), 1% penicillin and 1% streptomycin under 5% CO2 atmosphere at 37 °C. SH-SY5Y cells (1 × 10^5) were seeded in 96-well plates and incubated for 24 h. Different concentrations of compound 16b were added into each well and incubated for another 24 h. The survival of cells was determined by MTT assay and the absorbance of each well were measured using a SpectraMax M5 multimode plate reader at 570 nm. Results were expressed as percentage of control and statistical analysis was performed using GraphPad Prism 5.0 (GraphPad Software Inc., San Diego, CA, USA).

[2] = test system: panel of 21 diverse kinases; assay: Kinase selectivity screen, whole panel; format: biochemical, human; settings: 1.0 μM compound, Km ATP, 21 kinases
Excerpt: The potent GSK-3β inhibitor 16b was next subjected to kinase selectivity assay. A panel of kinases which were structurally related to GSK-3β was used for the GSK-3β selectivity studies[26]^,[37]^,[38]. […] GSK-3α and GSK-3β are known to share a 98% sequence homology at the catalytic site[42]. CDK5 and GSK-3 belong to the CMGC protein kinase family, which shared highly homology with each other[43]^,[44]. CDK5 is known abnormally activated and also responsible for the tau hyperphosphorylation in AD[45]. It was known that Aβ could increase CK2 activity, which in turn accelerated the tau phosphorylation in AD[46]. Therefore, the inhibition of CDK5 and CK2 by 16b may be beneficial for its anti-AD activities.
Figure 3. Effects of compound 16b on the activities of 21 protein kinases in vitro. Protein kinases were of human origin and assayed in the presence of 1.0 μM compound 16b or vehicle (DMSO). The enzymatic activity was measured in the presence of Km ATP. Kinase activities were given as the mean of twice determinations. […]
Compound 16b was evaluated for kinase selectivity at Eurofins Cerep SA (Celle-L’Evescault, France) in enzymatic radioactive assays in a panel of 21 different kinases (including GSK-3β) from diverse families. […] The enzymatic activity was measured in the presence of Km ATP.

CC(C)C(=O)Nc1n[nH]c2cc(-c3cccnc3)sc12 [Compound 16b, N-(5-(pyridin-3-yl)-1H-thieno[3,2-c]pyrazol-3-yl)isobutyramide]
non-cytotoxic concentration as fold of the IC50 value of GSK-3β inhibitory activity ([1]; 50 μM versus GSK-3β IC50): > 16000 fold | cytotoxicity on SH-SY5Y cells ([1]; concentration up to 50 μM (3.125-50 μM), 24 h, MTT): no toxicity; also recorded: no significant cytotoxicity | kinase selectivity over most of the kinases of the panel [2]: good selectivity; also recorded: accepted kinase selectivity
